Data as given in patent US20100048480A1, “PRODUCTION OF ANTI-MICROBIAL PEPTIDES” (priority 2006, published 2010).

System: Citrobacter rodentium
Test: Functionality assay (antimicrobial activity, killing of bacteria)
Format: cell-based
Procedure: One skilled in the art will appreciate that similar methods can be used to confirm the functionality of any AMP of interest, such as a defensin. The OD600 of a Citrobacter rodentium overnight culture was measured and a dilution series was performed. 100 μl of a 7.1×10^2 bacteria/ml dilution was used in the functionality assay. […] For LL37, the positive control had 20 μM pure synthetic LL37 (Microchem Facility, Emory) added, and LL37 peptide obtained in Example 2 was added at 8.5 μg (250 μl) or 17 μg (500 μl) (FIG. 3). 20 μM concentration of the synthetic peptides equals 8.8 μg added.

[1] = CRAMP peptide of Example 2 at 30 μM or 53 μM, positive control 50 μM CRAMP (Sigma Genosys), FIG. 2

Row | Substance | efficiency in killing Citrobacter rodentium compared with commercially available peptide [1] | efficiency in killing Citrobacter rodentium compared with commercially available peptide (LL37 peptide of Example 2 at 8.5 μg (250 μl) or 17 μg (500 μl), positive control 20 μM synthetic LL37, FIG. 3)
1 | CRAMP-FLAG-tag: CRAMP with C-terminal FLAG tag, released by sumoase from His tag-SUMO-CRAMP-FLAG-tag (HMGLLRKGGEKIGEKLKKIGQKIKNFFQKLVPQPEQDYKDDDDKG; C-terminal FLAG tag; Resulting peptide when SEQ ID NO 45 treated with sumoase) | decrease in efficacy | –
2 | CRAMP: mouse cathelicidin-related antimicrobial peptide, active last 34 aa, released by sumoase from recombinant His tag-SUMO-CRAMP (HMGLLRKGGEKIGEKLKKIGQKIKNFFQKLVPQPEQ; resulting protein when SEQ ID NO 47 treated with sumoase) | almost as efficient in killing Citrobacter rodentium as the commercially available peptide | –
3 | LL37: human cathelicidin LL37 plus N-terminal His and Met, released by sumoase from His tag-SUMO-LL37 (HMLLGDFFRKSKEKIGKEFKRIVQRIKDFLRNLVPRTES; resulting peptide when SEQ ID NO 40 treated with sumoase.) | – | almost as efficient in killing Citrobacter rodentium as the commercially available peptide
